Source: patent publication EP4737449A1 (Changchun Genescience Pharmaceutical Co., Ltd., priority 2023, dated 2025)
Where two headings read alike, the source gives them in different places.

How the values were obtained:
[1] = target: CYP 3A4 enzyme in human liver microsomes (Homo sapiens, UniProt P08684); test: CYP3A4 inhibition experiment in human liver microsomes
Method: The inhibitory effects of the test compounds on CYP 3A4T (with testosterone as substrate) and 3A4M (with midazolam as substrate) in human liver microsomes were evaluated in vitro to assess the medication safety of the compounds.
This study used the human liver microsome system and the cytochrome P450 enzyme probe substrate recommended by FDA guidelines for in vitro drug interaction studies to investigate the inhibition of the CYP 3A4 enzyme in human liver microsomes by the test compounds.
Test group (TG): Human liver microsomes were incubated with different concentrations of test compounds, NADPH (final concentration 2.00 mM) and probe substrates of different sub-enzymes (Table 4) for 5 min.
Positive control group (PC): Human liver microsomes were incubated with inhibitors (Table 4), NADPH (final concentration 2.00 mM) and probe substrates of different sub-enzymes (Table 4) for 5 min. Table 4 Probe substrates of sub-enzymes, inhibitors and incubation systems
The system was pre-incubated at 37°C for 5 min, and then 15 µL of 8 mM NADPH solution preheated at 37°C for 5-10 min to start the reaction. After incubation of the 96-well plate at 37°C for 5 min, 180 µL of acetonitrile:methanol (ACN:MeOH=1:1) solution containing internal standard (IS) was added to terminate the reaction. […] 80 µL of the supernatant was taken, added to 120 µL of ultrapure water, shaken evenly, and then detected by LC-MS/MS.
199 µL of 0.2 mg/mL HLM and 1 µL of 1 mM positive control inhibitor (ketoconazole) working solutions were taken and mixed evenly. 30 µL of the drug-containing liver microsome solution was taken and added to a 96-well plate, then 10 µL of substrate working solution (20 µM midazolam) was added, in duplicate. The system was pre-incubated at 37°C for 5 min, and then 15 µL of 8 mM NADPH solution preheated at 37°C for 5-10 min to start the reaction. After incubation of the 96-well plate at 37°C for 5 min, 180 µL of ACN:MeOH(1:1) solution containing IS was added to terminate the reaction. […] 80 µL of the supernatant was taken, added to 120 µL of ultrapure water, shaken evenly, and then detected by LC-MS/MS.
4.2.5.1 The relative activity of CYP450 sub-enzymes at different concentrations was calculated by dividing the peak area ratio (analyte peak area/internal standard peak area) of metabolites in the presence of the test sample or positive control by the peak area ratio of metabolites in the solvent control sample in the absence of the test article or positive control, according to the following formula: [formula] [formula]
4.2.5.2 Half maximal inhibitory concentration (IC50) was obtained by fitting according to the following model formula using Prism software: Y = Bottom + (Top−Bottom)/(1+10^(∧)((LogIC50−X)×HillSlope)) [formula]
X is the test sample concentration converted to logarithm (Log µM), Y is the relative activity (% of NC), Bottom and Top represent the percentage of enzyme activity at the bottom platform and top platform of the curve, respectively, and HillSlope represents the slope; to optimize the fitting effect, the use of other (nonlinear) dose-response models for fitting is not considered as a deviation from the protocol.

[2] = target: T1, p53-Y220C mutant protein (Homo sapiens, UniProt P04637, Y220C); test: In vitro DNA binding activity assay (TR-FRET); format: biochemical; details: concentration required to increase the binding activity of protein to DNA by 50%
T1 construct: The recombinant Y220C p53 DBD protein with his-tag
Method in brief: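 SC150, the compound concentration increasing p53-Y220C DNA binding by 50% relative to vehicle, came from background-corrected 665/615 nm TR-FRET ratios. His-tagged DBD and compound were preincubated 60 min at RT before biotin-DNA plus Eu-anti-His/streptavidin-d2 detection overnight in the dark.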

[3] = system: NUGC-3 cells; test: NUGC-3 cell proliferation assay (CTG, 7 days); format: cell-based, human; details: Homo sapiens, NUGC-3, 168 h
Method: The cells were cultured in strict accordance with ATCC requirements.
Cell culture medium: 1640 culture medium, 10% serum, 1% penicillin + streptomycin.
Culture conditions: 37°C, 95% air, 5% carbon dioxide.
Compounds (20 mM) were subjected to gradient dilution in DMSO: 10 gradients, 3-fold dilution, duplicate wells.
Positive and negative controls (100% dimethyl sulfoxide) were prepared.
The compounds that were gradient diluted with DMSO and positive and negative controls (1st and 2nd step), each 75 nL, were transferred to 384-well cell culture plates by Echo550.
The cells were washed twice with PBS, digested with trypsin, and centrifuged for cell counting.
The experiment can only be carried out when the cell viability is above 90%.
The cells were plated into 384-well cell culture plates, with 200 (NUGC-3) cells and 30 µL of culture medium per well.
The 384-well microplate was placed in a cell culture incubator for 7 days.
30 µL of CTG detection reagent was added to the 384-well microplate.
The 384-well microplate was incubated for 30 min at 37°C, 5% carbon dioxide in the dark.
The reading was performed by a multi-functional microplate reader Envision.
% Inhibition is calculated as follows: % Inhibition = 100−(Signalcmpd−SignalAve_BL)/(SignalAve_VC−SignalAve_BL)*100 [formula] • Signalcmpd: Average signal of the compound in the cell plate • Signalave_vc: Average signal of the negative control in the cell plate • Signalave_BL: Average signal of the blank wells in the cell plate
IC50 was calculated by fitting % inhibition and compound concentration logarithmically to a nonlinear regression (dose response - variable slope) using Graphpad 8.0. Table 2 IC50 of selected compounds in NUGC-3 cell proliferation assay

[4] = NUGC-3 cell proliferation, 7 days, CTG, read-out: IC50

Sequence of CYP 3A4 enzyme in human liver microsomes (P08684 whole entry): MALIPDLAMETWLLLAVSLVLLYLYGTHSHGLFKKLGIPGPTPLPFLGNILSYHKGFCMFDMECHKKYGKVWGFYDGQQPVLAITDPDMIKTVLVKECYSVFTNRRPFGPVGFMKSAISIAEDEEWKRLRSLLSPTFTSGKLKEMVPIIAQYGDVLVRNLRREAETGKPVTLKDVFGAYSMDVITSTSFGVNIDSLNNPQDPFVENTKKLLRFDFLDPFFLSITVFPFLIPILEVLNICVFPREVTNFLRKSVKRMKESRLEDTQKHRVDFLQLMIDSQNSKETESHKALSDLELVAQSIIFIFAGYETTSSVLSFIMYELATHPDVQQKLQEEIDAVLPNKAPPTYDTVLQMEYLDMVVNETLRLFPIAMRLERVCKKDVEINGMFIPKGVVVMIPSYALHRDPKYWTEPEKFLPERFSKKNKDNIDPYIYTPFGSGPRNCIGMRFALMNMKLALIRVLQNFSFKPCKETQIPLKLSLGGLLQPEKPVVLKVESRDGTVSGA

| Compound | IC50 ([1]; CYP 3A4M IC50, human liver microsomes, midazolam as substrate) [nM] | IC50 ([1]; CYP 3A4T IC50, human liver microsomes, testosterone as substrate) [nM] | SC150 [2] [nM] | IC50 [3, 4] [nM] | IC50 [3] [nM] |
| --- | --- | --- | --- | --- | --- |
| COC(C)(C)Cn1cc(C(=O)NCC#Cc2nn3c(N[C@@H]4CCN(C)C[C@@H]4F)cccc3c2CC(F)(F)F)cn1 [Compound 039, N-[3-(7-{[(3S,4R)-3-fluoro-1-methylpiperidin-4-yl]amino}-3-(2,2,2-trifluoroethyl)pyrazolo[1,5-a]pyridin-2-yl)prop-2-yn-1-yl]-1-(2-methoxy-2-methylpropyl)-1H-pyrazole-4-carboxamide] | 20200 | 27800 | 10 | – | – |
| CN1CC[C@@H](Nc2cccc3c(CC(F)(F)F)c(C#CCNC(=O)c4cnn(C(C)(C)CO)c4)nn23)[C@@H](F)C1 [Compound 232, N-[3-(7-{[(3S,4R)-3-fluoro-1-methylpiperidin-4-yl]amino}-3-(2,2,2-trifluoroethyl)pyrazolo[1,5-a]pyridin-2-yl)prop-2-yn-1-yl]-1-(1-hydroxy-2-methylprop-2-yl)-1H-pyrazole-4-carboxamide] | – | – | 8 | 419 | – |
| CN1CC[C@@H](Nc2cccc3c(CC(F)(F)F)c(C#CCNC(=O)c4cccnc4)nn23)[C@@H](F)C1 [Compound 074, N-[3-(7-{[(3S,4R)-3-fluoro-1-methylpiperidin-4-yl]amino}-3-(2,2,2-trifluoroethyl)pyrazolo[1,5-a]pyridin-2-yl)prop-2-yn-1-yl]nicotinamide] | – | – | 51 | 1860 | – |
| CN1CC[C@@H](Nc2cccc3c(CC(F)(F)F)c(C#CCNC(=O)c4ccc(C(C)(C)O)nc4)nn23)[C@@H](F)C1 [Compound 236, N-[3-(7-{[(3S,4R)-3-fluoro-1-methylpiperidin-4-yl]amino}-3-(2,2,2-trifluoroethyl)pyrazolo[1,5-a]pyridin-2-yl)prop-2-yn-1-yl]-6-(2-hydroxyprop-2-yl)pyridine-3-carboxamide] | – | – | 22 | 1280 | – |
| CN1CC[C@@H](Nc2cccc3c(CC(F)(F)F)c(C#CCNC(=O)c4cn(C(C)(C)C)cn4)nn23)[C@@H](F)C1 [Compound 082, 1-tert-butyl-N-[3-(7-{[(3S,4R)-3-fluoro-1-methylpiperidin-4-yl]amino}-3-(2,2,2-trifluoroethyl)pyrazolo[1,5-a]pyridin-2-yl)prop-2-yn-1-yl]-1H-imidazole-4-carboxamide] | – | – | 20 | 1090 | – |
| CN1CC[C@@H](Nc2cccc3c(CC(F)(F)F)c(C#CCNC(=O)c4ccc(N5CCCC5)nc4)nn23)[C@@H](F)C1 [Compound 315, N-[3-(7-{[(3S,4R)-3-fluoro-1-methylpiperidin-4-yl]amino}-3-(2,2,2-trifluoroethyl)pyrazolo[1,5-a]pyridin-2-yl)prop-2-yn-1-yl]-6-(pyrrolidin-1-yl)nicotinamide] | – | – | 52 | 1240 | – |
| CN1CC[C@@H](Nc2cccc3c(CC(F)(F)F)c(C#CCNC(=O)c4cc(F)n(C)c4)nn23)[C@@H](F)C1 [Compound 312, 5-fluoro-N-[3-(7-{[(3S,4R)-3-fluoro-1-methylpiperidin-4-yl]amino}-3-(2,2,2-trifluoroethyl)pyrazolo[1,5-a]pyridin-2-yl)prop-2-yn-1-yl]-1-methyl-1H-pyrrole-3-carboxamide] | – | – | 19 | 1460 | – |
| CC(C)(C)n1ncc(C(=O)NCC#Cc2nn3c(N[C@@H]4CCNC[C@@H]4F)cccc3c2CC(F)(F)F)c1N [Compound 353-4, 5-amino-1-tert-butyl-N-[3-(7-{[(3S,4R)-3-fluoropiperidin-4-yl]amino}-3-(2,2,2-trifluoroethyl)pyrazolo[1,5-a]pyridin-2-yl)prop-2-yn-1-yl]-1H-pyrazole-4-carboxamide] | – | – | 9 | 181 | – |
| CN1CC[C@@H](Nc2cccc3c(CC(F)(F)F)c(C#CCNC(=O)c4cnn(CC5CC5)c4N)nn23)[C@@H](F)C1 [Compound 292] | – | – | 8 | – | 214 |
| CN1CC[C@@H](Nc2cccc3c(CC(F)(F)F)c(C#CCNC(=O)c4ccc(N(C)C)nc4)nn23)[C@@H](F)C1 [Compound 328, 6-dimethylamino-N-[3-(7-{[(3S,4R)-3-fluoro-1-methylpiperidin-4-yl]amino}-3-(2,2,2-trifluoroethyl)pyrazolo[1,5-a]pyridin-2-yl)prop-2-yn-1-yl]pyridine-3-carboxamide] | – | – | 30 | 1210 | – |

More lines, main results first:

| IC50 ([1]; CYP 3A4M IC50, human liver microsomes, midazolam as substrate) [nM] | IC50 ([1]; CYP 3A4T IC50, human liver microsomes, testosterone as substrate) [nM] | SC150 [2] [nM] | Compound | IC50 [3, 4] [nM] | IC50 [3] [nM] |
| --- | --- | --- | --- | --- | --- |
| – | – | 19 | CN1CC[C@@H](Nc2cccc3c(CC(F)(F)F)c(C#CCNC(=O)c4cnn5c4CCC5)nn23)[C@@H](F)C1 [Compound 231, N-[3-(7-{[(3S,4R)-3-fluoro-1-methylpiperidin-4-yl]amino}-3-(2,2,2-trifluoroethyl)pyrazolo[1,5-a]pyridin-2-yl)prop-2-yn-1-yl]-5,6-dihydro-4H-pyrrolo[1,2-b]pyrazole-3-carboxamide] | 724 | – |
| – | – | 12 | CN1CC[C@@H](Nc2cccc3c(CC(F)(F)F)c(C#CCNC(=O)c4cnn(CC5CCC5)c4N)nn23)[C@@H](F)C1 [Compound 284, 5-amino-1-(cyclobutylmethyl)-N-[3-(7-{[(3S,4R)-3-fluoro-1-methylpiperidin-4-yl]amino}-3-(2,2,2-trifluoroethyl)pyrazolo[1,5-a]pyridin-2-yl)prop-2-yn-1-yl]-1H-pyrazole-4-carboxamide] | 360 | – |
| – | – | 21 | CN1CC[C@@H](Nc2cccc3c(CC(F)(F)F)c(C#CCNC(=O)c4ccc(N)nc4)nn23)[C@@H](F)C1 [Compound 296, 6-amino-N-[3-(7-{[(3S,4R)-3-fluoro-1-methylpiperidin-4-yl]amino}-3-(2,2,2-trifluoroethyl)pyrazolo[1,5-a]pyridin-2-yl)prop-2-yn-1-yl]nicotinamide] | 1230 | – |
| – | – | 41 | CN1CC[C@@H](Nc2cccc3c(CC(F)(F)F)c(C#CCNC(=O)c4cn(C)cn4)nn23)[C@@H](F)C1 [Compound 319, N-[3-(7-{[(3S,4R)-3-fluoro-1-methylpiperidin-4-yl]amino}-3-(2,2,2-trifluoroethyl)pyrazolo[1,5-a]pyridin-2-yl)prop-2-yn-1-yl]-1-methyl-1H-imidazole-4-carboxamide] | 1370 | – |
| – | – | 5 | CCN1CC[C@@H](Nc2cccc3c(CC(F)(F)F)c(C#CCNC(=O)c4cnn(C(C)C)c4N)nn23)[C@@H](F)C1 [Compound 365, 5-amino-N-(3-(7-{[(3S,4R)-1-ethyl-3-fluoropiperidin-4-yl]amino}-3-(2,2,2-trifluoroethyl)pyrazolo[1,5-a]pyridin-2-yl)prop-2-yn-1-yl)-1-isopropyl-1H-pyrazole-4-carboxamide] | 127 | – |
